Converted amounts (≈) assume the structure as drawn. Read-outs that look alike come from different tables or passages of the source.
Tests used:
S. obliqnus = test: Algicidal activity (growth inhibition, microplate, absorbance 650 nm) against S. obliqnus; assay type: cell-based; conditions: for IC50: 96 h, read-out: IC50 value S. obliqnus
Description: (§1) According to the method established by Schrader et al.[42], algicidal activity of alkaloid (1) and its amide analogues (7–32), as well as their hydrochloric salts (7S–27S), was evaluated against three typical […] algae, S. obliqnus, M. aeruginosa, and C. Pyrenoidosa at different concentrations. After three algae species were inoculated, the variation of algae density over 7 days were recorded continuously. […] The wavelength at 650 nm was determined as ideal incident wavelength for the measurement of algae density. Three […] algae S. obliqnus, M. aeruginosa, and C. pyrenoidosa were offered by Freshwater algae culture collection of the institute of Hydrobiology (FACHB-collection). Each culture for three species was maintained separately in continuous, steady-state growth microplates, which were placed in a growth chamber held at 28 ± 1 °C and illuminated continuously under fluorescent lights at a photon flux density of […]. Absorbance values of each wells were measured by a Packard model Spectra Count microplate photometer.
(§2) Alkaloid (1) and its analogues (7–32), as well as their hydrochloric salts (7S–27S), were dissolved separately in DMSO to provide stock solution concentrations. Initially, each stock solution was aseptically pipetted into the bottom of separate wells (20 μL per well) in a 96-well microplate and the final test concentrations for each sample were 0, 0.78, 1.56, 3.12, 6.25, 12.5, and 25 μg/mL. Wells of control samples contained only unialgal culture. The solution of CuSO4 and Diuron at the same concentration were chose as the reference sample. Each experiment was performed at least three times. Through measuring the area values under the individual growth curves, the inhibitory rate (%) for the individual tested concentration was calculated according to the following equation (1):1 Ii=(Ac−Ai)/[…]×100% • Ii: inhibitory rate of biomass growth by toxicant concentration i (%) • Ac: average area under the growth curve by control sample • Ai: average area under the growth curve by test concentration i
(§3) Mean values of 96-hour IC50 were determined for each group of plates, and standard deviation were calculated and reported as the mean ± SD.
(§4) The IC50 values of all compounds against three freshwater algae species were calculated using SPSS v19.0, and the algicidal activities of alkaloid (1) and its amide analogues (7–32), as well as the corresponding hydrochloric salts (7S–27S) are listed in Table 1 and 2, respectively.

C. pyrenoidosa = test: Algicidal activity (growth inhibition, microplate, absorbance 650 nm) against C. pyrenoidosa; assay type: cell-based, Chlorella pyrenoidosa; conditions: for IC50: Auxenochlorella pyrenoidosa, read-out: IC50 value C. pyrenoidosa
Description: as §1, §2, §3, §4

M. aeruginosa = test: Algicidal activity (growth inhibition, microplate, absorbance 650 nm) against M. aeruginosa; assay type: cell-based; conditions: for IC50: Microcystis aeruginosa, read-out: IC50 value M. aeruginosa
Description: as §1, §2, §3, §4
Currently, M. aeruginosa appears to be the most harmful algae existing in the freshwater bodies in the developing countries. To investigate growth inhibitory potential of this class of thiazole amides on M. aeruginosa, thiazole amide (10) and its hydrochloric acid salt (10S) were subject to further survey for the optimal inhibition time and concentration (Figs 3 and 4). […] The variation of growth inhibitory ratios of compounds (10) and (10S) against M. aeruginosa at the lowest complete inhibition concentration is illustrated in Fig. 4. As observed, for administration of thiazole amide (10), the growth inhibitory ratios after 96 and 120 hours increase gradually to 79% and 92%, respectively. Under the same experimental conditions, growth inhibitory ratios for the salt (10S) are 82% and 88%, respectively.

Molecule | IC50 (C. pyrenoidosa; 96-hour IC50, mean ± SD) [µg/mL] | IC50 (M. aeruginosa; 96-hour IC50, mean ± SD) [µg/mL] | IC50 value S. obliqnus (S. obliqnus; 96-hour IC50, mean ± SD) [µg/mL] | IC50 value C. pyrenoidosa (C. pyrenoidosa; 96-hour IC50, mean ± SD) [µg/mL] | IC50 value M. aeruginosa (M. aeruginosa; 96-hour IC50, mean ± SD) [µg/mL] | IC50 (S. obliqnus; 96-hour IC50, mean ± SD) [µg/mL] | also measured
COc1ccc(NC(=O)c2csc([C@H](C)N)n2)cc1 [compound 12] | 17.4 ± 0.92 (≈ 62.6 µM) | 2.35 ± 0.91 (≈ 8.47 µM) |  |  |  |  | algicidal activity, times higher than CuSO4 and Diuron (S. obliqnus; S. obliqnus, from IC50 values): more than 10 times; melting point: 126 to 127 °C
C[C@H](N)c1nc(C(=O)Nc2ccccc2)cs1.Cl [7S] |  |  | 0.14 ± 0.06 | 2.54 ± 0.28 | 1.33 ± 0.16 |  | 
CC(N)c1nc(C(=O)Nc2cccc(Br)c2)cs1 (centres unmarked) [compound 15] |  |  |  | 5.77 ± 0.11 (≈ 17.7 µM) | 4.79 ± 0.15 (≈ 14.7 µM) |  | 
COc1ccc(NC(=O)c2csc([C@H](C)N)n2)cc1.Cl [12S] |  |  | 3.16 ± 0.29 | 2.88 ± 0.39 | 1.40 ± 0.18 |  | 
C[C@H](N)c1nc(C(=O)Nc2ccccc2Cl)cs1 [compound 19] | 8.16 ± 1.34 (≈ 29 µM) | 12.2 ± 1.16 (≈ 43.4 µM) |  |  |  |  | 
N-(2-(1H-indol-3-yl)ethyl)-2-acetylthiazole-4-carboxamide [Alkaloid (1)] |  |  | 14.33 ± 1.15 | 381.57 ± 5.16 | 114.60 ± 3.35 |  | 
CCOC(=O)c1ccc(NC(=O)c2csc([C@H](C)N)n2)cc1 [compound 26] | 4.16 ± 0.56 (≈ 13 µM) | 3.29 ± 0.21 (≈ 10.3 µM) |  |  |  | 29.5 ± 1.56 (≈ 92.5 µM) | 
C[C@H](N)c1nc(C(=O)Nc2ccc(F)cc2)cs1 [compound 8] | 3.57 ± 0.37 (≈ 13.5 µM) | 4.51 ± 0.92 (≈ 17 µM) |  |  |  | 2.74 ± 0.11 (≈ 10.3 µM) | 
Cc1ccccc1NC(=O)c1csc([C@H](C)N)n1.Cl [21S] |  |  | 13.63 ± 1.20 | 5.15 ± 0.56 | 4.93 ± 045 |  | 
CN(C)C(=O)Nc1ccc(Cl)c(Cl)c1 [Diuron, reference compound] |  |  |  |  |  |  | IC50 (S. obliqnus): 0.79 ± 0.08 µg/mL (≈ 3.39 µM); IC50 (C. pyrenoidosa; 96 h): 1.42 ± 0.27 µg/mL (≈ 6.09 µM); IC50 (M. aeruginosa; 96 h): 1.35 ± 0.15 µg/mL (≈ 5.79 µM)
C[C@H](N)c1nc(C(=O)NCCc2ccccc2)cs1 [compound 31] | 2.84 ± 0.56 (≈ 10.3 µM) | 57.5 ± 6.26 (≈ 209 µM) |  |  |  | 5.98 ± 0.49 (≈ 21.7 µM) | 
C[C@H](N)c1nc(C(=O)Nc2ccccc2)cs1 [compound 7] | 4.61 ± 0.45 (≈ 18.6 µM) | 11.2 ± 1.12 (≈ 45.1 µM) |  |  |  |  | melting point: 117 to 122 °C
C[C@H](N)c1nc(C(=O)Nc2ccc(Cl)c(Cl)c2)cs1.Cl [24S] |  |  | 5.59 ± 0.78 | 3.42 ± 0.32 | 5.18 ± 0.66 |  | 
C[C@H](N)c1nc(C(=O)Nc2cccc(C(F)(F)F)c2)cs1.Cl [17S] |  |  | 1.59 ± 0.23 | 2.39 ± 0.24 | 3.09 ± 0.42 |  | 
C[C@H](N)c1nc(C(=O)Nc2ccc(Cl)cc2)cs1.Cl [9S] |  |  | 4.00 ± 0.34 | 0.40 ± 0.10 | 1.18 ± 0.21 |  | 
Cc1cc(NC(=O)c2csc([C@H](C)N)n2)ccc1F.Cl [25S] |  |  | 16.62 ± 1.48 | 1.59 ± 0.19 | 1.79 ± 0.22 |  | 
Cc1ccc(NC(=O)c2csc([C@H](C)N)n2)cc1.Cl [11S] |  |  | 6.83 ± 0.45 | 3.37 ± 0.28 | 4.34 ± 0.36 |  | 
C[C@H](N)c1nc(C(=O)NC(C)(C)C)cs1 [compound 29] | 3.46 ± 0.67 (≈ 15.2 µM) | 5.31 ± 0.45 (≈ 23.4 µM) |  |  |  | 6.23 ± 0.98 (≈ 27.4 µM) | 
C[C@H](N)c1nc(C(=O)Nc2ccc(Cl)c(Cl)c2)cs1 [compound 24] | 5.11 ± 1.01 (≈ 16.2 µM) | 9.81 ± 1.13 (≈ 31 µM) |  |  |  | 4.31 ± 0.21 (≈ 13.6 µM) | 
Cc1ccc(NC(=O)c2csc([C@H](C)N)n2)cc1 [compound 11] | 10.4 ± 1.12 (≈ 39.8 µM) | 6.16 ± 1.13 (≈ 23.6 µM) |  |  |  | 2.66 ± 0.18 (≈ 10.2 µM) | 
C[C@H](N)c1nc(C(=O)Nc2ccc(OC(F)(F)F)cc2)cs1 [compound 23] | 3.8 ± 0.16 (≈ 11.5 µM) | 7.2 ± 0.71 (≈ 21.7 µM) |  |  |  | 5.93 ± 0.11 (≈ 17.9 µM) | 

Reference: paper PMC5986738, “Thiazole Amides, A Novel Class of Algaecides against Freshwater Harmful Algae” (Scientific Reports, 2018)
